Measurements: US20100048604A1, “Ligands for Aldoketoreductases” (priority 2004, published 2010)
Residue numbers refer to the chain shown, from its start.

Columns and labels:
Type in all cases: biochemical
AKR1C3 [1] = target: T1, AKR1C3 (Homo sapiens, UniProt P42330); assay: Steady state kinetic parameters of fluorogenic substrates with purified AKR1C isozymes; details: isozyme 1C3, fluorimetric; for Kcat / Km: potassium phosphate buffer pH 6, NADPH; for activity as substrate (product formation): 10 μg enzyme
T1 construct: gift of Professor Trevor Penning (University of Pennsylvania School of Medicine)
T1 sequence (P42330 1-323): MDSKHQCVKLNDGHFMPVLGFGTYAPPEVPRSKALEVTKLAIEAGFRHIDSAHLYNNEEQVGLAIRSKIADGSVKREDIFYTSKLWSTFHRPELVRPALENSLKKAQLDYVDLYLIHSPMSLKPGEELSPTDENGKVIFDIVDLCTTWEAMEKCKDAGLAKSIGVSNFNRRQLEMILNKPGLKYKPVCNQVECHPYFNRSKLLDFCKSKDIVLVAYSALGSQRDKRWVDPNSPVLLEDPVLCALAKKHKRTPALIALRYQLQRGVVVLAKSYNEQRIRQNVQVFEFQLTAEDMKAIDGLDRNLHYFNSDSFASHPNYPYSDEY
Description: The initial reaction rates were used to derive standard kinetic parameters (kcat and Km, Materials and Methods).
Substrate tolerance of AKR1Cs: Isozyme Activity with 5a-5i: Activity of the second generation of fluorogenic substrates with the AKR1C isozymes was determined as follows. […] After mixing the aqueous components thoroughly, 20 μL of acetonitrile was added as a cosolvent and mixed well. […] 4 μL of undiluted AKR1C (provided generously by the Penning lab at concentrations of 2.5 mg/mL) were then added to the cuvette for a total of 10 μg purified enzyme in the 1 mL assay volume. Fluorescence arising from the respective alcohol reduction product was then monitored over the course of 5-10 minutes.
Binding constant and catalytic rates (Km and kcat) of the second generation of fluorogenic substrates was determined as follows. […] After mixing the aqueous components thoroughly, 20 μL of acetonitrile was added as a cosolvent and mixed well. […] To initiate the reduction, 2 or 4 μL of diluted AKR1C (1:2 to 1:100, depending on the kinetics of a particular isozyme's reduction of a substrate) was then added to the cuvette. Fluorescence arising from the respective alcohol reduction product was then monitored over the course of 3 minutes (Excitation and emission band pass slits both at 4 nm, lamp 700 V, λexc 410 nm, λem 510).
(§1) initial rate=[nst×(Ft−F0)/(Fst)]/t (1)
where Ft and F0 represent the fluorescence at times t and 0 minutes, nst is the nanomoles of product in a known concentration of product, and Fst is the fluorescence resulting from nst of product. […] Reported enzymatic kinetic parameters are the average of three independent determinations from three different preparations of substrate and enzyme.

AKR1C4 = target: T2, AKR1C4 (Homo sapiens, UniProt P17516); assay: as above; design: key to activity as substrate (product formation): no activity = 10 μg enzyme produced less than 0.1 nmol product per min (determined fluorimetrically); details: isozyme 1C4, fluorimetric; for Kcat / Km: potassium phosphate buffer pH 6, NADPH; for activity as substrate (product formation): 10 μg enzyme
T2 construct: gift of the Penning lab (University of Pennsylvania School of Medicine)
T2 sequence (P17516 1-323): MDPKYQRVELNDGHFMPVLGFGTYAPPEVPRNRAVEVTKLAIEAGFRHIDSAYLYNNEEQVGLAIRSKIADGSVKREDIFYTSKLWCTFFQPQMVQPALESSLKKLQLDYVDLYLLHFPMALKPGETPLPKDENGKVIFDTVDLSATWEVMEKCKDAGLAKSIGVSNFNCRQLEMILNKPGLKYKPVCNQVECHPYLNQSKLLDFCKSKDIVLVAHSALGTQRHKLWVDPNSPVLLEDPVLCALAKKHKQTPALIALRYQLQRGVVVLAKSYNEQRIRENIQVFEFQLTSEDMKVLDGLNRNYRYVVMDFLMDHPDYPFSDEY
Text: (§2) AKR1C2 and AKR1C3 Selective Probes: Probes (5a-5i) were examined as substrates for the four purified human HSD isozymes (AKR1C1-AKR1C4) under standard assay conditions [catalytic quantities of enzyme, an excess of cofactor (NADPH)]. The initial reaction rates were used to derive standard kinetic parameters (kcat and Km, Materials and Methods).
(§3) Substrate tolerance of AKR1Cs: Isozyme Activity with 5a-5i: Activity of the second generation of fluorogenic substrates with the AKR1C isozymes was determined as follows. To a STARNA semi-micro fluorimeter cell (with 4 polished windows) was added 100 μL of 1 M potassium phosphate buffer (pH 6), 840 μL doubly deionized water, and 20 μL of 12.5 mM NADPH. After mixing the aqueous components thoroughly, 20 μL of acetonitrile was added as a cosolvent and mixed well. 20 μL of 2.5 mM second generation fluorogenic ketone in acetonitrile (5a-5i) was then added and mixed. 4 μL of undiluted AKR1C (provided generously by the Penning lab at concentrations of 2.5 mg/mL) were then added to the cuvette for a total of 10 μg purified enzyme in the 1 mL assay volume. Fluorescence arising from the respective alcohol reduction product was then monitored over the course of 5-10 minutes.
(§4) Binding constant and catalytic rates (Km and kcat) of the second generation of fluorogenic substrates was determined as follows. To a STARNA semi-micro fluorometer cell (with 4 polished windows) was added 100 μL of 1 M potassium phosphate buffer (pH 6), 840 μL doubly deionized water, and 20 AL of 12.5 mM NADPH. After mixing the aqueous components thoroughly, 20 μL of acetonitrile was added as a cosolvent and mixed well. 20 μL of the second generation fluorogenic ketone (5a-5i) was then added and mixed to achieve assay concentrations of 5Km to Km/5. To initiate the reduction, 2 or 4 μL of diluted AKR1C (1:2 to 1:100, depending on the kinetics of a particular isozyme's reduction of a substrate) was then added to the cuvette. Fluorescence arising from the respective alcohol reduction product was then monitored over the course of 3 minutes (Excitation and emission band pass slits both at 4 nm, lamp 700 V, λexc 410 nm, λem 510). The rate of product formation, expressed in units of nanomoles per minute, were calculated according to previously published procedures (Wierzchowski, J.; Dafeldecker, W. P.; Holmquist, B.; Vallee, B. L. Anal. Biochem. 1989, 178, 57-62):
as §1
(§5) where Ft and F0 represent the fluorescence at times t and 0 minutes, nst is the nanomoles of product in a known concentration of product, and Fst is the fluorescence resulting from nst of product. Kinetic parameters were approximated by GraFit (Erithacus Software, Surrey, UK) nonlinear regression analysis program to fit the untransformed data to a hyperbolic function as originally described (Wierzchowski, J.; Dafeldecker, W. P.; Holmquist, B.; Vallee, B. L. Anal. Biochem. 1989, 178, 57-62). Reported enzymatic kinetic parameters are the average of three independent determinations from three different preparations of substrate and enzyme.

AKR1C2 = target: T3, AKR1C2 (Homo sapiens, UniProt P52895); assay: as above; design: key to activity as substrate (product formation): no activity = 10 μg enzyme produced less than 0.1 nmol product per min (determined fluorimetrically); details: isozyme 1C2, fluorimetric; for activity as substrate (product formation): 10 μg enzyme
T3 construct: gift of the Penning lab (University of Pennsylvania School of Medicine)
T3 sequence (P52895 1-323): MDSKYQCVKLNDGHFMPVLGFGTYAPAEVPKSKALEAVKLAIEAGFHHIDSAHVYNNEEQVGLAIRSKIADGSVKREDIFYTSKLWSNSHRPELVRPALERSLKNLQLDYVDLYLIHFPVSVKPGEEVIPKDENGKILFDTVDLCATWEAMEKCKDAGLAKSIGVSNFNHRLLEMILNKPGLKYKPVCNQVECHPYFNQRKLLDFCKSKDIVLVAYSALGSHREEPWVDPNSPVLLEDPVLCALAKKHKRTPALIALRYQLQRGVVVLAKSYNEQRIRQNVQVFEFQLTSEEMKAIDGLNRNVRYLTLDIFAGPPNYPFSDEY
Text: as §2, §3, §4, §1, §5

AKR1C1 = target: T4, AKR1C1 (Homo sapiens, UniProt Q04828); assay: as above; design: key: no activity = 10 μg enzyme produced less than 0.1 nmol product per min (determined fluorimetrically); details: isozyme 1C1; 10 μg enzyme, fluorimetric
T4 construct: gift of the Penning lab (University of Pennsylvania School of Medicine)
T4 sequence (Q04828 1-323): T3 sequence (P52895 1-323) with V38T, H47R, V54L, S87C, M151V, H170R, L172Q
Text: as §2, §3, §4, §1, §5

AKR1C3 [2] = target: T1, AKR1C3; assay: Determination of kinetic parameters for AKR1C3 (fluorogenic substrate 5); details: Type 2 isozyme of 3α-HSD (AKR 1C3)
Description: Whether the activity of human enzymes may be imaged by probe 5 was investigated. Type 2 isozyme of 3α-HSD (AKR 1C3) was selected for this study owing to its important physiological role.
Fluorogenic substrate 5 reduction was monitored on a Hitachi F-4500 fluorimeter in Starna quartz cuvettes fluorometrically in 1 mL systems containing 100 mM potassium phosphate pH 6.0 containing excess of NADPH cofactor (250 μM) and various amounts of the substrate (0.1953-50 μM) dissolved in 4% acetonitrile. […] Cuvettes were mixed thoroughly after addition of cofactor, cosolvent, and substrate. Reactions were initiated by the addition of 4 μL of dilute AKR1C3 (115 μg/mL) and were corrected for nonenzymatic rates. All reactions were followed by monitoring the increase in fluorescence of the product alcohol for 5 minutes at λem 510 nm with λex 440 nm (Excitation and emission band pass slits both at 2.5 nm, lamp 900 V) at 37° C. The initial velocities, expressed in units of nanomoles per minute, were calculated according to previously published procedures (Wierzchowski, J.; Dafeldecker, W. P.; Holmquist, B.; Vallee, B. L. Anal. Biochem. 1989, 178, 57-62): initial rate=[nst×(Ft−F0)/(Fst)]/t where Ft and F0 represent the fluorescence at time t and 0, nst is the nanomoles of the product standard, and Fst is the fluorescence resulting from nst of product. Kinetic constants were approximated using the GraFit (Erithacus Software, Surrey, UK) non-linear regression analysis program to fit the untransformed data to a hyperbolic function as originally described (Wilkinson, G. N. Biochem. J. 1961, 80, 324-332), yielding estimated values of kcat, Km, and their associated standard errors.

Row | Structure (SMILES) | Kcat (AKR1C3 [1]) | Km (AKR1C3 [1]) | Kcat (AKR1C4) | Km (AKR1C4) | activity as substrate (product formation) (AKR1C3 [1]) | activity as substrate (product formation) (AKR1C4) | activity as substrate (product formation) (AKR1C2) | activity as substrate (product formation) (AKR1C1) | Kcat (AKR1C3 [2]) | Km (AKR1C3 [2]) | Kcat (AKR1C2; potassium phosphate buffer pH 6, NADPH)
1 | CC(=O)c1cc(=O)oc2c3c4c(cc12)CCCN4CCC3 [drawing 207] | 0.125 s⁻¹ | 1.1 µM | 0.00633 s⁻¹ | 20.6 µM |  |  |  |  |  |  | 
2 | O=C(c1cc(=O)oc2c3c4c(cc12)CCCN4CCC3)C1CCCCC1 |  |  |  |  | no activity | no activity | no activity | no activity |  |  | 
3 | C[C@]12CCC(=O)C[C@@H]1CC[C@@H]1[C@@H]2CC[C@]2(C)[C@@H](O)CC[C@@H]12 [5α-dihydrotestosterone, reference compound] | 0.00417 s⁻¹ | 26 µM |  |  |  |  |  |  | 0.00417 s⁻¹ | 26 µM | 
4 | CC(=O)c1cc(=O)oc2c3c(ccc12)NCCC3 | 0.115 s⁻¹ | 8.3 µM | 0.0233 s⁻¹ | 40.2 µM |  |  |  |  |  |  | 
5 | CC(=O)c1c(Br)c(=O)oc2c3c4c(cc12)CCCN4CCC3 [drawing 212] |  |  |  |  | no activity | no activity | no activity | no activity |  |  | 
6 | CC(=O)c1cc(=O)oc2cc3c(cc12)CCCN3 | 0.155 s⁻¹ | 4.3 µM |  |  |  | no activity |  | no activity |  |  | 0.00983 s⁻¹
7 | O=C1CCc2c1c1cc3c4c(c1oc2=O)CCCN4CCC3 | 0.12 s⁻¹ | 0.13 µM |  |  |  | no activity |  |  |  |  | 
8 | CC(=O)c1c(-c2ccccc2)c(=O)oc2c3c4c(cc12)CCCN4CCC3 [drawing 213] |  |  |  |  | no activity | no activity | no activity | no activity |  |  | 
9 | O=C(c1ccccc1)c1cc(=O)oc2c3c4c(cc12)CCCN4CCC3 [drawing 210] | 0.09 s⁻¹ | 0.051 µM | 0.0103 s⁻¹ | 6.2 µM |  |  |  |  |  |  | 
10 | CC(C)C(=O)c1cc(=O)oc2c3c4c(cc12)CCCN4CCC3 |  |  |  |  | no activity | no activity | no activity | no activity |  |  | 
11 | CC(=O)c1cc(=O)oc2cc(N(C)C)ccc12 | 0.145 s⁻¹ | 4.3 µM | 0.035 s⁻¹ | 14.8 µM |  |  |  |  |  |  | 
